Where “and” joins values, the source holds several entries; their conditions need not be identical. Identical values can stand only once. Like-named read-outs stand apart in the source and are kept apart here.
Columns and labels:
[1] = test system: Staphylococcus aureus NCTC 4163; assay: In vitro photodynamic inactivation of planktonic cells, 470 nm LED; type: cell-based
Protocol: (§1) In the first experiment, the main goal was to determine whether the tested compounds were antimicrobially active with or without light. Two compounds (2 and 3) were tested in the visible range, and a 470 nm LED lamp was applied (Figure 11). Due to poor solubility and low absorption, curcumin was not included in the tests. A screening study was carried out on three strains: Gram-positive bacteria—Staphylococcus aureus NCTC 4163, Gram-negative bacteria—Escherichia coli ATCC 25922, and the yeast Candida albicans ATCC 10231. In the study, the irradiation lasted 30 min, and the lamp was placed 10 mm above the microtiter plate containing the bacterial suspensions and tested compounds at concentrations of 10 μM. The preincubation time (PIT) lasted 20 min, and the LED lamp emitted visible light (λmax 470 nm) with an irradiance of 16.67 mW/cm^2, which corresponds to a light dose (fluence) of 30.01 J/cm^2 after 30 min of exposure. The light exposure conditions (lamp distance, lamp power, and lamp type) were the same in all subsequent experiments. The light dose depended on the irradiation time. […] Compound 3 presented activity against both G+ (S. aureus) and G− (E. coli) bacteria. The light-induced antimicrobial activity against S. aureus and E.coli exceeded log reductions of 5.54 and 4.46, respectively. At these concentrations, not even a single colony was observed on the plates, as complete eradication occurred.
(§2) The second experiment was designed to determine the time and concentration required to achieve the biological effect observed in the first experiment and to extend the study to other strains (Figure 12). Apart from S. aureus and E. coli, the Gram-positive Streptococcus pyogenes ATCC 19615, which is the etiologic agent of tonsillitis, and the Gram-negative Pseudomonas aeruginosa NCTC 6749, which is a major threat to hospitalized and immunocompromised patients due to its high antibiotic resistance, were used. The observed effect was strictly concentration-dependent (Table 6). According to the results, Gram-positive bacteria appear to be the most susceptible to the applied photocytotoxicity study. […] For S. pyogenes, the results were even more pronounced, as the complete eradication under the influence of compound 3 at a concentration of 10 µM occurred after only 5 min of irradiation, while at a concentration of 1 µM, complete eradication occurred after 15 min of irradiation. Interesting results were also obtained for Gram-negative bacteria. […] A high level of eradication of P. aeruginosa in the presence of compound 3 (10 µM) was observed after only 5 min of irradiation (log reduction: 4.29). […] Reductions in microbial survival were still observed with a decrease in compound concentration, but complete eradication was not achieved within the irradiation time.
(§3) The microorganisms used in the study were (i) standard strains of bacteria: Staphylococcus aureus NCTC 4163, Escherichia coli ATCC 25922, Pseudomonas aeruginosa NCTC 6749, and Streptococcus […] ATCC 19615, and (ii) fungi: Candida albicans ATCC 10231. The standard strains were obtained from the National Collection of Type Cultures (NCTC, Salisbury, UK) and the American Type Culture Collection (ATCC, Manassas, VA, USA). Bacterial and yeast strains were stored in Microbank cryogenic vials (Pro-Lab Diagnostics, Richmond Hill, ON, Canada) at −70 °C ± 10 °C. The bacteria were cultured aerobically in brain–heart infusion (BHI) broth (OXOID, Basingstoke, UK) at 36 °C ± 1 °C for 20 h. C. albicans cultures were grown in Sabouraud dextrose broth (SDB, Merck, Steinheim, Germany) at 36 °C for 20 h.
(§4) The organisms were harvested by centrifugation (3000× g for 15 min) and resuspended in 1.5 mL of 10 mM PBS, pH, 7.0 (Sigma-Aldrich, St. Louis, MO, USA). The cells were then diluted 1/100 in PBS to a final concentration of about 10^7 colony-forming units (CFUs)/mL. […]

[2] = test system: Escherichia coli ATCC 25922; assay: as above; type: cell-based
Protocol: as §1, §2, §3, §4

[3] = test system: Candida albicans ATCC 10231; assay: as above; type: cell-based; settings: 10 µM
Protocol: as §1
The microorganisms used in the study were (i) standard strains of bacteria: Staphylococcus aureus NCTC 4163, Escherichia coli ATCC 25922, Pseudomonas aeruginosa NCTC 6749, and Streptococcus […] ATCC 19615, and (ii) fungi: Candida albicans ATCC 10231. The standard strains were obtained from the National Collection of Type Cultures (NCTC, Salisbury, UK) and the American Type Culture Collection (ATCC, Manassas, VA, USA). […]
The organisms were harvested by centrifugation (3000× g for 15 min) and resuspended in 1.5 mL of 10 mM PBS, pH, 7.0 (Sigma-Aldrich, St. Louis, MO, USA). […] Viable microorganisms were measured by counting the number of colony-forming units (CFUs) after appropriate serial dilution and culture on tryptic soy agar plates (TSA, OXOID, Basingstoke, UK) or Columbia Blood Agar with Sheep Blood (CAS, OXOID, Basingstoke, UK) for bacteria and Sabouraud dextrose agar (SDA, Merck, Steinheim, Germany) for fungi, following incubation at 36 °C ± 1 °C for 24–72 h. The number of surviving organisms and the log10 reduction in microbial cells for each sample were calculated using a formula available in the literature.
(§5) Lamp type—LED λmax~470 nm (LIU470A LED Array Light Source; Thorlabs Inc., Bergkirchen, Germany); irradiance—16.67 mW/cm^2 (measured with PM16-130 Power Meter, Thorlabs Inc., Bergkirchen, Germany, and Optel Opole Sp. z o.o., Opole, Poland).

[4] = test system: Pseudomonas aeruginosa NCTC 6749; assay: In vitro photodynamic inactivation of planktonic cells, 470 nm LED; type: cell-based
Excerpt: as §2, §3
The organisms were harvested by centrifugation (3000× g for 15 min) and resuspended in 1.5 mL of 10 mM PBS, pH, 7.0 (Sigma-Aldrich, St. Louis, MO, USA). The cells were then diluted 1/100 in PBS to a final concentration of about 10^7 colony-forming units (CFUs)/mL. Aliquots (100 μL) of a standardized microbial suspension were placed in the wells of microtiter plates, and an equal volume of a solution of the tested compound was added to give final concentrations of 1 × 10^−5 (10 µM) and 1 × 10^−6 M (1 µM) (groups P+). Negative control wells contained the bacterial or yeast suspension and PBS without the photosensitizer (groups P−). All the samples were incubated in the dark for 20 min and irradiated by the LED panel at a distance of 10 mm for a specific period, depending on the experiment (groups L+). To evaluate the antimicrobial activity of the tested compounds, duplicate experimental samples were prepared but not irradiated (groups L−). Viable microorganisms were measured by counting the number of colony-forming units (CFUs) after appropriate serial dilution and culture on tryptic soy agar plates (TSA, OXOID, Basingstoke, UK) or Columbia Blood Agar with Sheep Blood (CAS, OXOID, Basingstoke, UK) for bacteria and Sabouraud dextrose agar (SDA, Merck, Steinheim, Germany) for fungi, following incubation at 36 °C ± 1 °C for 24–72 h. The number of surviving organisms and the log10 reduction in microbial cells for each sample were calculated using a formula available in the literature.
as §5

[5] = test system: MRC-5 fibroblasts; parameters: method as in Lazewski et al. 32; settings: ref Lazewski et al. 32, cited from earlier work
[6] = test system: S. aureus; settings: 10 µM; 440 nm; 1.944 J/cm^2; 3.6 mW/cm^2; 8.8 min; cited from earlier work
[7] = L+P+, 10 µM, 470 nm, 30 min, 30.01 J/cm^2
[8] = L+P+, 470 nm, 30 min, 30.01 J/cm^2
[9] = 1 µM, 15 min irradiation 470 nm
[10] = 1 µM, 25 min irradiation 470 nm
[11] = 10 µM, 5 min irradiation 470 nm (5 J/cm^2)
[12] = 10 µM, 25 min irradiation 470 nm (25 J/cm^2)
[13] = 10 µM, 15 min irradiation 470 nm (15 J/cm^2)

F[B-]1(F)OC(/C=C/c2ccc(OCCN3CCOCC3)cc2)=CC(/C=C/c2ccc(OCCN3CCOCC3)cc2)=[O+]1 [Compound 2]
Log10 reduction [1, 7]: 2.13 log
Log10 reduction ([1]; L−P+ (no light), 10 µM): 0.05 log
Log10 reduction ([2]; L−P+ (no light), 10 µM): 0.52 log
Log10 reduction [3, 8]: 0.01 log
Log10 reduction ([3]; L−P+ (no light)): 0.04 log
melting point: 170 to 173 °C

C[N+]1(CCOc2ccc(C=CC3=CC(C=Cc4ccc(OCC[N+]5(C)CCOCC5)cc4)=[O+][B-](F)(F)O3)cc2)CCOCC1 [Compound 3]
Log Red. ([4]; 1 µM, 5 min irradiation 470 nm): 0.86 log
Log Red. [4, 9]: 2.32 log
Log Red. [4, 10]: 2.83 log
Log Red. ([4]; 1 µM, 30 min irradiation 470 nm (30 J/cm^2)): 3.32 log
Log Red. [4, 11]: 4.29 log
Log Red. ([4]; 10 µM, 15 min irradiation 470 nm): 4.75 log
Log Red. [4, 12]: >4.85 log
Log Red. ([1]; 1 µM, 5 min irradiation 470 nm): −0.01 log
Log Red. ([1]; 1 µM, 10 min irradiation 470 nm): 0.77 log
Log Red. [1, 9]: 1.01 log
Log Red. ([1]; 1 µM, 20 min irradiation 470 nm): 1.42 log
Log Red. [1, 11]: 3.37 log
irradiation time to complete eradication ([1]; 10 µM, 470 nm LED): 15 min
Log Red. ([1]; 10 µM, 10 min irradiation 470 nm): 4.09 log
Log Red. [1, 13]: >5.40 log and >5.4 log
Log10 reduction [1, 7]: >5.54 log
Log10 reduction ([1]; L−P+ (no light), 10 µM): −0.01 log
Log Red. ([2]; 1 µM, 5 min irradiation 470 nm): 0.83 log
biological activity after irradiation ([2]; 1 µM, 470 nm LED): no biological activity
Log Red. [2, 9]: 1.57 log
Log Red. [2, 10]: 1.82 log
Log Red. ([2]; 10 µM, 5 min irradiation 470 nm): 1.15 log
Log Red. [2, 13]: 3.08 log
Log Red. [2, 12]: 4.53 log
Log10 reduction [2, 7]: >4.46 log
Log10 reduction ([2]; L−P+ (no light), 10 µM): 0.58 log
Log10 reduction [3, 8]: −0.04 log
Log10 reduction ([3]; L−P+ (no light)): −0.09 log

Curcumin [reference compound]
IC50 ([5]; after 24 h): 70.4 ± 12.5 µM
IC50 ([5]; after 48 h): 45.3 ± 3.18 µM
Efficiency (log reduction) [6]: 5.3 log

— PMC11478334, “Quaternized Curcumin Derivative—Synthesis, Physicochemical Characteristics, and Photocytotoxicity, Including Antibacterial Activity after Irradiation with Blue Light” (Molecules, 2024)
